Laboratory results reported in patent US20210171576A1, “METHODS FOR TREATING CANCER WITH ACYLDEPSIPEPTIDE ANALOGS” (priority 2018, published 2021).
Where a SMILES comes first, the peptide text is derived from it. Bridges are numbered along the chain shown (N, C = ends). [ ]: non-standard residue; d: D form. The star is where a group is joined. Octatrienoyl(2E,4E,6E) = C/C=C/C=C/C=C/C(=O)*; Phe(3,5-F2) = N[C@@H](Cc1cc(F)cc(F)c1)C(=O)O; Pip(4S-Me) = C[C@H]1CCN[C@H](C(=O)O)C1; 2Nal = N[C@@H](Cc1ccc2ccccc2c1)C(=O)O; Hexadienoyl(2E,4E) = C/C=C/C=C/C(=O)*; Pro(4R-Me) = C[C@H]1CN[C@H](C(=O)O)C1; Tiq1c(1S) = O=C(O)[C@H]1NCCc2ccccc21; Bta = N[C@@H](Cc1csc2ccccc12)C(=O)O; X12 = O=C(/C=C/c1cccc(C(F)(F)F)c1)*; Heptenoyl(2E) = CCCC/C=C/C(=O)*; Cha = N[C@@H](CC1CCCCC1)C(=O)O; aThr = C[C@H](O)[C@H](N)C(=O)O; Pip = O=C(O)[C@@H]1CCCCN1; NMeA = CN[C@@H](C)C(=O)O; X11 = O=C(/C=C/C=C/CO)*; Abu = CC[C@H](N)C(=O)O; Cbz = O=C(OCc1ccccc1)*; Dap = NC[C@H](N)C(=O)O; Boc = CC(C)(C)OC(=O)*; X4 = CCCCC/C=C/C(=O)*; X6 = CCCC/C=C\C(=O)*; X5 = CCCCCC#CC(=O)*; X7 = CCC/C=C\C(=O)*; X8 = CCC/C=C/C(=O)*; X10 = CCCC#CC(=O)*

Biological target: T1, human mitochondrial CIpP (HsCIpP) (Homo sapiens, UniProt Q16740)
T1 construct: made in house; host or cells: E. coli SG1146 (BL21(DE3) ΔclpP::cat)
T1 sequence (Q16740 57-277): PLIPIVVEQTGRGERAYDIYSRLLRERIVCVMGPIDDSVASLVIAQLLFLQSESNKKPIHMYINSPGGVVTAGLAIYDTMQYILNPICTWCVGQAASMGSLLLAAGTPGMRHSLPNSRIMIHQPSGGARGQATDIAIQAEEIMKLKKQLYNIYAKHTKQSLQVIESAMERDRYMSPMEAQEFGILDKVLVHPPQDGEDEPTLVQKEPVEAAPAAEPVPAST
Test: Screen of ADEP analogs against HsCIpP: relative degradation (RD) index, casein-FITC degradation relative to E. coli CIpAP
Type: biochemical
Parameters: key: casein-FITC degradation by HsClpP relative to EcClpAP
Conditions: for Hs RD5: RD value at 5 μM of the ADEP analog; for Hs RD25: RD value at 25 μM of the ADEP analog, measure of ability to activate HsCIpP; for Hs RD1: RD value at 1 μM of the ADEP analog
From the text: Structural analogs of acyldepsipeptide (ADEP) (Goodreid et al., 2016) that were previously developed as potential antibiotics against bacterial CIpP were screened and assessed for their ability to activate and dysregulate the protease activity of HsCIpP, by measuring their relative degradation (RD) index. Note that ADEP-28 was also previously reported by Carney et al. (2014). Details of the experimental protocol have been described in Leung et al., 2011. The RD index is defined as follows: […]
Δφ is the change in fluorescence after 6 hr of starting the reaction measured using 485 nm excitation and 535 nm emission, which primarily detects the signal from casein-FITC. E. coli CIpAP was used as a benchmark for maximum CIpP proteolytic activity. The CIpP in the numerator can be from any other organism. RD25 measurements refer to the measurement in the presence of 25 μM compound. All ADEP analogs were first screened at 25 μM, and their RD25 scores were calculated using the above formula and method as described in Leung et al., 2011 (FIG. 1A). Those that achieved RD25≥0.87 were screened a second time at 5 μM, followed by calculation of their RD5 scores. The top analogs with RD5≥0.74 were screened a third time at 1 μM, followed by calculation of their RD1 scores (FIG. 1B).
To identify ADEP analogs that allow HsCIpP to degrade folded proteins independent of HsCIpX+ATP (i.e., that activate or dysregulate HsCIpP), the inventors employed the in vitro screening method that was used for identifying small molecule activators of Escherichia coli CIpP (EcCIpP) (Leung et al., 2011). In this approach, the ability of HsCIpP to degrade FITC-labeled casein (casein-FITC) was measured and compared to the ability of EcCIpAP to degrade casein-FITC. This is quantitatively expressed as relative degradation (RD) index (Leung et al., 2011).

Structure (SMILES)	Hs RD5	Hs RD25	Hs RD1
CCCC/C=C/C(=O)N[C@@H](CC1CCCCC1)C(=O)N[C@H]1COC(=O)[C@@H]2C[C@@H](C)CN2C(=O)[C@H](C)NC(=O)[C@@H]2CCCCN2C(=O)[C@@H]2CCCN2C1=O [ADEP-21] ({Heptenoyl(2E)}-[Cha]SP[Pip]A[Pro(4R-Me)]; ester 2-C)	0.70	1.00	–
CCCC/C=C/C(=O)N[C@@H](Cc1cc(F)cc(F)c1)C(=O)N[C@H]1COC(=O)[C@@H]2C[C@@H](C)CN2C(=O)[C@H](C)NC(=O)[C@@H]2c3ccccc3CCN2C(=O)[C@@H]2CCCN2C1=O [ADEP-37] ({Heptenoyl(2E)}-[Phe(3,5-F2)]SP[Tiq1c(1S)]A[Pro(4R-Me)]; ester 2-C)	0.86	0.92	0.68
CCCC/C=C\C(=O)N[C@@H](Cc1ccccc1)C(=O)N[C@H]1COC(=O)[C@@H]2CCCN2C(=O)[C@H](C)NC(=O)[C@H](C)N(C)C(=O)[C@@H]2CCCN2C1=O [ADEP-19] (X6-FSP[NMeA]AP; ester 2-C)	–	0.34	–
CCCC/C=C/C(=O)N[C@@H](Cc1ccc2ccccc2c1)C(=O)N[C@H]1COC(=O)[C@@H]2C[C@@H](C)CN2C(=O)[C@H](C)NC(=O)[C@@H]2CCCCN2C(=O)[C@@H]2CCCN2C1=O [ADEP-43] ({Heptenoyl(2E)}-[2Nal]SP[Pip]A[Pro(4R-Me)]; ester 2-C)	0.55	0.87	–
CCCC/C=C/C(=O)N[C@@H](Cc1csc2ccccc12)C(=O)N[C@H]1COC(=O)[C@@H]2C[C@@H](C)CN2C(=O)[C@H](C)NC(=O)[C@@H]2CCCCN2C(=O)[C@@H]2CCCN2C1=O [ADEP-42] ({Heptenoyl(2E)}-[Bta]SP[Pip]A[Pro(4R-Me)]; ester 2-C)	0.49	0.87	–
CCC/C=C/C(=O)N[C@@H](Cc1ccccc1)C(=O)N[C@H]1COC(=O)[C@@H]2CCCN2C(=O)[C@H](C)NC(=O)[C@H](C)N(C)C(=O)[C@@H]2CCCN2C1=O [ADEP-09] (X8-FSP[NMeA]AP; ester 2-C)	–	0.76	–
CCCC/C=C/C(=O)N[C@@H](Cc1ccccc1)C(=O)N[C@H]1COC(=O)[C@@H]2C[C@@H](C)CN2C(=O)[C@H](C)NC(=O)[C@@H]2CCCCN2C(=O)[C@@H]2CCCN2C1=O [ADEP-10]	0.85	1.07	0.44
CCCC/C=C/C(=O)N[C@@H](Cc1cc(F)cc(F)c1)C(=O)N[C@H]1COC(=O)[C@@H]2C[C@@H](C)CN2C(=O)[C@H](CC)NC(=O)[C@@H]2CCCCN2C(=O)[C@@H]2CCCN2C1=O [ADEP-25] ({Heptenoyl(2E)}-[Phe(3,5-F2)]SP[Pip][Abu][Pro(4R-Me)]; ester 2-C)	0.92	0.97	0.61
CCCC/C=C/C(=O)N[C@@H](Cc1cc(F)cc(F)c1)C(=O)N[C@H]1CNC(=O)[C@@H]2C[C@@H](C)CN2C(=O)[C@H](C)NC(=O)[C@@H]2CCCCN2C(=O)[C@@H]2CCCN2C1=O [ADEP-32] ({Heptenoyl(2E)}-[Phe(3,5-F2)][Dap]P[Pip]A[Pro(4R-Me)]; lactam 2-C)	0.96	1.03	0.79
C/C=C/C=C/C(=O)N[C@@H](Cc1ccccc1)C(=O)N[C@H]1COC(=O)[C@@H]2CCCN2C(=O)[C@H](C)NC(=O)[C@H](C)N(C)C(=O)[C@@H]2CCCN2C1=O [ADEP-26] ({Hexadienoyl(2E,4E)}-FSP[NMeA]AP; ester 2-C)	–	0.86	–
C[C@@H]1NC(=O)[C@H](C)N(C)C(=O)[C@@H]2CCCN2C(=O)[C@@H](NC(=O)[C@H](Cc2ccccc2)NC(=O)OC(C)(C)C)COC(=O)[C@@H]2CCCN2C1=O [ADEP-34] (Boc-FSP[NMeA]AP; ester 2-C)	–	0.00	–
CCCC/C=C/C(=O)N[C@@H](Cc1cc(F)cc(F)c1)C(=O)N[C@H]1COC(=O)[C@@H]2C[C@@H](C)CN2C(=O)[C@H](C)NC(=O)[C@@H]2C[C@@H](C)CCN2C(=O)[C@@H]2CCCN2C1=O [ADEP-30] ({Heptenoyl(2E)}-[Phe(3,5-F2)]SP[Pip(4S-Me)]A[Pro(4R-Me)]; ester 2-C)	0.93	0.98	0.69
C[C@@H]1C[C@H]2C(=O)OC[C@H](NC(=O)[C@H](Cc3ccccc3)NC(=O)OC(C)(C)C)C(=O)N3CCC[C@H]3C(=O)N(C)[C@@H](C)C(=O)N[C@@H](C)C(=O)N2C1 [ADEP-35] (Boc-FSP[NMeA]A[Pro(4R-Me)]; ester 2-C)	–	0.00	–
C[C@@H]1C[C@H]2C(=O)OC[C@H](NC(=O)[C@H](Cc3ccccc3)NC(=O)OCc3ccccc3)C(=O)N3CCC[C@H]3C(=O)N(C)[C@@H](C)C(=O)N[C@@H](C)C(=O)N2C1 [ADEP-16] (Cbz-FSP[NMeA]A[Pro(4R-Me)]; ester 2-C)	–	0.06	–
CCCC/C=C/C(=O)N[C@@H](Cc1ccccc1)C(=O)N[C@H]1COC(=O)[C@@H]2CCCN2C(=O)[C@H](C)NC(=O)[C@H](C)N(C)C(=O)[C@@H]2CCCN2C1=O [ADEP-01] ({Heptenoyl(2E)}-FSP[NMeA]AP; ester 2-C)	0.70	0.96	0.22
C/C=C/C=C/C=C/C(=O)N[C@@H](Cc1ccccc1)C(=O)N[C@H]1COC(=O)[C@@H]2C[C@@H](C)CN2C(=O)[C@H](C)NC(=O)[C@H](C)N(C)C(=O)[C@@H]2CCCN2C1=O [ADEP-05] ({Octatrienoyl(2E,4E,6E)}-FSP[NMeA]A[Pro(4R-Me)]; ester 2-C)	0.69	0.98	–
CCCCCC#CC(=O)N[C@@H](Cc1ccccc1)C(=O)N[C@H]1COC(=O)[C@@H]2CCCN2C(=O)[C@H](C)NC(=O)[C@H](C)N(C)C(=O)[C@@H]2CCCN2C1=O [ADEP-27] (X5-FSP[NMeA]AP; ester 2-C)	–	0.64	–
CCC/C=C\C(=O)N[C@@H](Cc1ccccc1)C(=O)N[C@H]1COC(=O)[C@@H]2CCCN2C(=O)[C@H](C)NC(=O)[C@H](C)N(C)C(=O)[C@@H]2CCCN2C1=O [ADEP-33] (X7-FSP[NMeA]AP; ester 2-C)	–	0.07	–
C[C@@H]1C[C@H]2C(=O)O[C@@H](C)[C@H](NC(=O)[C@H](Cc3cc(F)cc(F)c3)NC(=O)/C=C/c3cccc(C(F)(F)F)c3)C(=O)N3CCC[C@H]3C(=O)N3CC[C@H](C)C[C@H]3C(=O)N[C@@H](C)C(=O)N2C1 [ADEP-39] (X12-[Phe(3,5-F2)][aThr]P[Pip(4S-Me)]A[Pro(4R-Me)]; ester 2-C)	–	0.78	–
CCCC#CC(=O)N[C@@H](Cc1ccccc1)C(=O)N[C@H]1COC(=O)[C@@H]2CCCN2C(=O)[C@H](C)NC(=O)[C@H](C)N(C)C(=O)[C@@H]2CCCN2C1=O [ADEP-23] (X10-FSP[NMeA]AP; ester 2-C)	–	0.12	–
C/C=C/C=C/C=C/C(=O)N[C@@H](Cc1ccccc1)C(=O)N[C@H]1COC(=O)[C@@H]2CCCN2C(=O)[C@H](C)NC(=O)[C@H](C)N(C)C(=O)[C@@H]2CCCN2C1=O [ADEP-08] ({Octatrienoyl(2E,4E,6E)}-FSP[NMeA]AP; ester 2-C)	0.52	0.97	–
C[C@@H]1NC(=O)[C@@H]2CCCCN2C(=O)[C@@H]2CCCN2C(=O)[C@@H](NC(=O)[C@H](Cc2ccccc2)NC(=O)c2ccc([N+](=O)[O-])cc2)COC(=O)[C@@H]2CCCN2C1=O [ADEP-24]	–	0.00	–
C[C@@H]1C[C@H]2C(=O)OC[C@H](NC(=O)[C@H](Cc3ccccc3)NC(=O)/C=C/C=C/CO)C(=O)N3CCC[C@H]3C(=O)N(C)[C@@H](C)C(=O)N[C@@H](C)C(=O)N2C1 [ADEP-36] (X11-FSP[NMeA]A[Pro(4R-Me)]; ester 2-C)	–	0.00	–
C[C@@H]1C[C@H]2C(=O)OC[C@H](NC(=O)[C@@H](N)Cc3ccccc3)C(=O)N3CCC[C@H]3C(=O)N(C)[C@@H](C)C(=O)N[C@@H](C)C(=O)N2C1 [ADEP-31] (H-FSP[NMeA]A[Pro(4R-Me)]; ester 2-C)	–	0.00	–
CCCCC/C=C/C(=O)N[C@@H](Cc1ccccc1)C(=O)N[C@H]1COC(=O)[C@@H]2CCCN2C(=O)[C@H](C)NC(=O)[C@H](C)N(C)C(=O)[C@@H]2CCCN2C1=O [ADEP-18] (X4-FSP[NMeA]AP; ester 2-C)	0.72	1.07	–
C[C@@H]1NC(=O)[C@H](C)N(C)C(=O)[C@@H]2CCCN2C(=O)[C@@H](NC(=O)[C@H](Cc2ccccc2)NC(=O)OCc2ccccc2)COC(=O)[C@@H]2CCCN2C1=O [ADEP-22] (Cbz-FSP[NMeA]AP; ester 2-C)	–	0.00	–
